Test [1] concerns PDGF-stimulated PDGFR tyrosine phosphorylation. The test can be described thus: Inhibition of PDGF-stimulated PDGFR tyrosine phosphorylation in NIH 3T3 cells (anti-phosphotyrosine Western blot). In kind it is cell-based. Here is the method: Starved NIH 3T3 cells are pretreated with various growth factor binding agents (0-100 μM) for 5 min before stimulation with PDGF (10 ng/mL) for 10 min. The cells are then harvested and lysed, and the proteins from the lysates separated by SDS-PAGE and immunoblotted with an anti-phosphotyrosine antibody (4G10: Upstate Biotechnology, Lake Placid, N.Y.). The phosphotyrosine PDGF receptor bands are scanned, and the concentrations of growth factor binding molecules that inhibited the ability of PDGF to stimulate PDGFR tyrosine phosphorylation by 50% are determined.
(§1) Starved NIII 3T3 cells (PDGF-BB and PDGF-AA), NIH 3T3 cells overexpressing either EGFR (EGF) or Flk-1 (VEGF) are pre-treated with the indicated concentrations of GFB-111 for 5 minutes before 10 minutes of stimulation with PDGF-BB (10 ng/ml), PDGF-AA (10 ng/ml), EGF (100 ng/ml) and VEGF (50 ng/ml). Cell lysates are run on SDS-PAGE gels, then transferred to nitrocellulose and Western blotted with anti-phosphotyrosine (4G 10) or anti-phosphorylated Erk1/Erk2 (New England Biolabs).
A novel series of protein surface binding agents are prepared that bind PDGF and disrupt its signaling function. The molecules are composed of a central calix[4] arene scaffold to which is attached four peptide loop domains (FIG. 1). The peptide loop component is based on a cyclic hexapeptide in which two residues are replaced by a 3-aminomethylbenzoate dipeptide mimetic containing a 5-amino substituent for attachment to the scaffold. The resulting molecules (as shown in Table 1) contain a functionalized and variable surface approximately 500 Å^2 in area. Several peptide loop sequences are synthesized (Table 1) to provide molecular surfaces with negatively and positively charged as well as hydrophobic regions designed to bind to complementary areas on the target growth factor. To identify PDGF binding molecules from this library, a cell-based screening assay is developed with NIH 3T3 cells to detect molecules capable of blocking PDGF-BB-induced tyrosine autophosphorylation of the PDGF receptor. The ability of the identified molecules to bind PDGF-BB and inhibit interaction with its receptor is then confirmed biochemically. Starved NIH 3T3 cells are pretreated for 5 min with the synthetic molecules prior to stimulation with PDGF for 10 min. The effects of the molecules on PDGF-stimulated receptor tyrosine phosphorylation are determined by the antiphosphotyrosine Western blotting as described in Table 1. […] GFB-111 has four-fold symmetry containing 4 identical peptide loops with negative and hydrophobic residues, GlyAspGlyTyr (GDGY) (SEQ ID NO. 6), that are designed to be complementary to the PDGF surface involved in binding to PDGFR. The area of PDGF-BB that binds PDGFR is composed primarily of positive and hydrophobic residues.
Starved NIH 3T3 cells are pretreated with the various GFBs (0-100 μM) for 5 min. prior to stimulation with PDGF (10 ng/ml) for 10 min. The cells are then harvested lysed and the proteins from the lysates are separated by SDS-PAGE and immunoblotted with an anti-phosphotyrosine antibody (4G10, Upstate Biotechnology, Lake Placid, N.Y.). The phosphotyrosine PDGF receptor bands are scanned and the concentrations of GFBs that inhibit the ability of PDGF to stimulate PDGFR tyrosine phosphorylation by 50% are determined. Data for each compound is representative of at least two independent experiments. FIG. 1 illustrates the structure of growth factor binders. GFBs are synthesized as described by Park, H. D. et al., Protein surface recognition by synthetic receptors: A route to novel sub-micromolar inhibitors for chymotrypsin. J. Am. Chem. Soc. 121, 8-13 (1999); and Hamuro, Y. et al., A calixarene with four peptide loops: An antibody mimic for recognition of protein surfaces. Angew. Chemie Int. Ed. Engl. 36, 2680-2683 (1997), each herein incorporated by reference in its respective entirety.

Test [2] deals with PDGF-stimulated Erk1/Erk2 activation. The test can be described thus: Inhibition of PDGF-stimulated activation of MAPK Erk1/Erk2 (p44/p42) in NIH 3T3 cells. In kind it is cell-based. Conditions: for Inhibition of PDGF-stimulated MAPKinase activation: FIG. 13. Here is the method:
as §1
(§2) In other experiments, starved NIH 3T3 cells (PDGF-AA, PDGF-BB, aFGF, bFGF), NIH 3T3 cells overexpressing EGFR. IGF-1R or Flk-1 and the human breast carcinoma SkBr3 that overexpresses ErbB2 (HRGβ) are pretreated with GFB-111 (100 μM) for 5 min before 10 min stimulation with the indicated growth factors at the concentrations shown above and aFGF (10 ng/ml), bFGF (50 ng/ml), IGF-1 (50 ng/ml) and HRGβ (10 ng/ml). Cell lysates are then immunoblotted with anti-phospho Erk1/Erk2 as described above.

In test [3] the test system is VEGF-stimulated MAP kinase activation. The test can be described thus: Inhibition of VEGF-stimulated MAP kinase (p42/p44, Erk2/Erk1) activation in Flk-1/3T3 cells. Conditions: for pIC50: Flk-1/3T3, VEGF stimulated. Type of test: cell-based. The method, then: as §1, §2
In order to identify molecules that would bind vascular endothelial growth factor (VEGF), Flk-1/3T3 cell-based assay is used that relies on VEGF-stimulation of its receptor, Flk-1, tyrosine phosphorylation and subsequent MAP-kinase activation. The assay used herein identical to that used for PDGF, except that NIH 3T3 cells that overexpress Flk-1 are used. GFB-116, which has four identical loops with the sequence GKGK (SEQ ID NO. 10) is shown to be very potent and selective toward blocking the ability of VEGF to stimulate Flk-1 tyrosine phosphorylation and subsequent MAP-kinase activation as measured by phospho erk-1 and erk-2 also referred to in the Table as p42 and p44 (Table 4A). A preferred embodiment of the invention is a compound that binds to a vascular endothelial growth factor, of the general structure III (above) in which R is n-butyl, n-propyl, or benzyl, and X comprise covalently attached identical cyclic peptide loops wherein R1, R2, R3, and R4 are each amino acid side chains, as broadly defined above, that define a tetrapeptide sequence, wherein said tetrapeptide is covalently attached at the amino and carboxy termini of said tetrapeptide to 3-aminomethyl-5-aminobenzamide linking group, and wherein said tetrapeptide sequence is GKGK (SEQ ID NO. 10), GDGY (SEQ ID NO. 6), or functionally related derivatives thereof.

The subject of test [4] is angiogenesis in A-549 tumors. The test can be described thus: Angiogenesis: Factor VIII immunostaining and microvessel count in A-549 tumors. In kind it is in vivo, nude mice. As to conditions: for Microvessel count (Mean ± SD) 250X / Microvessel count (Mean ± SD) 400X: A-549 tumor. Here is the method:
On the indicated termination day of each nude mouse experiment described above, (see also Table 2), the tumors are extracted and half frozen at −70° C., and half is fixed in 10% neutral buffered formalin for 6 hrs. After fixation the tissue samples are processed into paraffin blocks. Four micrometer-thick tissue sections are obtained from the paraffin blocks and stained with hematoxylin and eosin (H&E) (Richard-Allan Scientific, Kalamazoo, Mich.) using standard histologic techniques. Tissue sections are also subjected to immunostaining for Factor VIII using the avidin biotin peroxidase complex technique (Vectastatin Elite ABC Kit, Vector, Burlingame, Calif.). Rabbit polyclonal FVIII antibody (Von Willebrand Factor, Dako Corporation, Carpinteria, Calif.) is used at 1:400 dilution, following microwave antigen retrieval (4 cycles of 5 minutes each on high in 0.1M citrate buffer).

Setting [5] is: NIH 3T3, PDGF stimulated, head p42/Erk2 (p42 for GFB-132 to 137), read-out: (IC50) Inhibition p42/Erk2.
The mark [6] stands for this setting: read-out: (IC50) Inhibition p42.
[7] abbreviates: read-out: (IC50) Inhibition p44.

pIC50: −log10 of the molar value. “And” between values parts separate entries of the source, which are not always exact repeats. Equal values may be shown once. Read-outs that look alike come from different tables or passages of the source.

Consider GKGK [GFB-116], for which the pIC50 in test [1] (5 min pretreatment, PDGF 10 ng/ml 10 min, read-out: (IC50) Inhibition PDGFR-Y-P) is 4.40; in test [2] (setting [5]), 4.55; in test [3] (setting [6]), 5.30; in test [3] (setting [7]), 5.30. The “Inhibition of PDGF-stimulated MAPKinase activation” value in test [2] is “does not”. The “Block of VEGF-activation of the MAPKinases Erk1 and Erk2” value in test [3] (FIG. 13) is “block”. Further, the “Microvessel count (Mean ± SD) 250X” value in test [4] (50 mpk) is reported as 5.56 ± 1.75. For the same molecule, the “Microvessel count (Mean ± SD) 400X” value in test [4] (50 mpk) was found to be 3.46 ± 1.19. Further, in test [4] (A-549 tumors), the “Inhibition of angiogenesis” value is “efficacious”. For the same molecule, the “Inhibition of angiogenesis by microvessel counting” value in test [4] (A-549 tumors, 50 mpk) came to 70%.

In the case of `CCCCOc1c2cc(C(=O)Nc3cc4cc(c3)C(=O)NCC(=O)N[C@@H](CC(=O)O)C(=O)NCC(=O)N[C@@H](Cc3ccc(O)cc3)C(=O)NC4)cc1Cc1cc(C(=O)Nc3cc4cc(c3)C(=O)NCC(=O)N[C@@H](CC(=O)O)C(=O)NCC(=O)N[C@@H](Cc3ccc(O)cc3)C(=O)NC4)cc(c1OCCCC)Cc1cc(C(=O)Nc3cc4cc(c3)C(=O)NCC(=O)N[C@@H](CC(=O)O)C(=O)NCC(=O)N[C@@H](Cc3ccc(O)cc3)C(=O)NC4)cc(c1OCCCC)Cc1cc(C(=O)Nc3cc4cc(c3)C(=O)NCC(=O)N[C@@H](CC(=O)O)C(=O)NCC(=O)N[C@@H](Cc3ccc(O)cc3)C(=O)NC4)cc(c1OCCCC)C2` [GFB-111], the “Concentration giving complete block of PDGF-BB stimulated receptor tyrosine phosphorylation” value in test [1] is 3 µM. For the same molecule, the pIC50 in test [1] (read-out: IC50 of inhibition of PDGF-BB stimulation of PDGF receptor tyrosine autophosphorylation) was 6.60; in test [2] (NIH 3T3, FIG. 3A, read-out: IC50 PDGF-dependent activation of Erk1), 6.10; in test [2] (NIH 3T3, FIG. 3A, read-out: IC50 PDGF-dependent activation of Erk2), 5.92; in test [2] (setting [5]) it was 5.59; in test [3] (setting [6]), 5.00; in test [3] (setting [7]), 5.00. For the same molecule, the “Inhibition of PDGF-stimulated MAPKinase activation” value in test [2] is “inhibits”. The “Microvessel count (Mean ± SD) 250X” value in test [4] (50 mpk, 50 mg/kg) is 3.63 ± 1.36 and 5.68 ± 1.74. In test [4] (50 mpk, 50 mg/kg), the “Microvessel count (Mean ± SD) 400X” value is 2.34 ± 1.01 and 3.58 ± 1.01. Besides, the “Inhibition of angiogenesis” value in test [4] (A-549 tumors) was “strongly”.

For the origin of these results see US8361970B2, “Growth factor binding molecules” (University of South Florida, priority 2000, dated 2013).
